Experimental data from US12636291B2, “Compositions and methods relating to use of agonists of ALPHA5-containing GABAA receptors” (Centre for Addiction and Mental Health, priority 2019, dated 2026).

Tested on: SV129 mice
Assay: Neurogenesis (proliferation, survival, maturation) in the SV129 mouse model
Assay type: in vivo
Settings: compared to VEH
Excerpt: We next assessed the effects of GL-II-73 on neurogenesis using the SV129 mouse model Kim et al. 2017. Neural Plasticity, doi.org.10.1155/2017/5863258. Specifically, we assessed the effects of treatment on neuronal cell proliferation, survival, and maturation. It is now recognized that neurogenesis occurs not only during development, but also in the adult brain. […] Specifically, adult neurogenesis is known to occur in three regions in the mammalian brain: (i) the subgranular zone (SGZ) of the dentate gyrus in the hippocampus, which is a region that is involved in regulating learning and memory; (ii) the subventricular zone (SVZ), which is situated throughout the lateral walls of the brain's lateral ventricles; and (ii) the amygdala. New neurons born in the SGZ migrate into the granule cell layer of the dentate gyrus and eventually become granule cells. These newborn neurons integrate into the existing circuitry and receive functional input. Adult neurogenesis in the hippocampus is therefore defined as the progression from neural stem cell to mature dentate granule neuron. All stages of adult neurogenesis are regulated by physiological activity, including the proliferation, differentiation, fate determination of adult neural stem cells (NSCs) and progenitors, and the survival, maturation, and integration of newborn neurons.
The stages of neurogenesis can be broken down into (i) proliferation, (ii) survival of the newly formed cells, and (iii) their maturation. Each can be evaluated using specific markers for proliferation, survival, and maturation. […] BrdU can be used to show survival of the newly proliferating cells since it is incorporated into the newly synthesized DNA of replicating cells and is then maintained in the newly formed cells. Thus, quantitative immunohistochemistry against BrdU is used as a proxy of survival. Finally, doublecortin can be used as a proxy of maturation. Previous studies have shown that all steps of neurogenesis were down regulated in the SV129 mice, and further that chronic treatment with fluoxetine, a first line monoaminergic antidepressant, increased the neurogenesis in this mouse model. We therefore used this model system to assess the effects of chronic treatment with GL-II-73 on neurogenesis.
Fluoxetine treatment was used as a positive control in each experiment.

SMILES: CNCCC(Oc1ccc(C(F)(F)F)cc1)c1ccccc1 (stereo not shown) [FLX, fluoxetine]
- proliferation: number of K167-positive cells (chronic treatment (4 weeks), FIG. 13A, FLX p<0.001, GL-II-73 p<0.05): increased the number of K167-positive cells
- survival: BrdU-positive cells (chronic treatment (4 weeks), FIG. 13B): only FLX increased BrdU-positive cells
- maturation: number of DCX+cells (chronic treatment, FIG. 14A, ps<0.05): increased with FLX compared to VEH
- maturation index (DCX+cells possessing tertiary dendrites over the total DCX+cells) (chronic treatment, FIG. 14B, ps<0.01): an increase with both FLX and GL-II-73
